What was measured:
recombinant AOR = molecular target: T1, recombinant AOR (Rattus norvegicus, UniProt P97584, Q160G/Q263G/Q264G/Q276G); experiment: LC/MS/MS of enzymatic and nonenzymatic GSH adducts; format: biochemical; conditions: incubations with AOR, GSH and NADPH, 1 h, 37° C.
T1 construct: made in house
Procedure: High Performance Liquid Chromatography with Tandem Mass Spectrometry (LC/MS/MS) of GSA Adducts. […] These reactions were incubated at 37° C. for 1 h. Controls lacking NAFPH were performed. Reactions were stopped and deproteinized with addition of 400 μl of ice-cold acetonitrile, spun at 3500×g for 10 min at 4° C., and the supernatants were evaporated to dryness under vacuum. Residual GSH and NADPH cofactors were removed using an Oasis C18 sample prep column (Waters Chromatography). Adducts were eluted with methanol, evaporated to dryness under vacuum, resuspended in […] of 0.1% acetic acid, and detected using liquid chromatography electrospray ionization tandem mass spectrometry performed in the positive ion mode. […] A flow rate of 0.1 ml/min and gradient of 0% buffer D (70% acetic acid (0.1%):30% acetonitrile) to 100% buffer E (20% acetic acid (0.1%):80% acetonitrile) over 30 min were used to resolve the compounds. Adducts were detected by monitoring for selected molecular ions or characteristic molecular fragments after MS/MS. Molecular fragments were obtained with 35% relative collusion energy.
Measuring GSH adduction is a commonly used technique for estimating covalent protein binding, and thus cytotoxicity, of a drug (Baillie and Kassahun, 2001). The nucleophilic thiol moiety of GSH effectively scavenges electrophilic molecules and its large size and charge prevent it from entering the active site of most enzymes. […] Daughter ions of adducts, which represent the loss of water (−18 m/z) or […] (−129 m/z), were common and monitored for in these experiments following MS/MS.
Enzymatic reduction occurred in incubations containing recombinant AOR, NADPH, and GSH, while companion nonenzymatic reductions lacked NADPH. […] However the NE irofulven-GSH adduct (FIG. 5B) was detected only after monitoring for a daughter ion (M+—H2)=536 m/z) and was 42-fold less abundant than the E adduct. […] Contrary to findings with irofulven, a great deal of NE illudin M-GSH adduct was detected in NADPH-deficient incubations.

CCRF-CEM = conditions: cited from earlier work
K-562 = conditions: K-562, Leukemia, cited from earlier work
MOLT-4 = conditions: MOLT-4, Leukemia, cited from earlier work
RPMI-8226 = conditions: RPMI-8226, Leukemia, cited from earlier work
EKVX = conditions: cited from earlier work
HOP-62 = conditions: HOP-62, Non-Small Cell Lung, cited from earlier work
COLO 205 = conditions: COLO 205, Colon, cited from earlier work
SF-539 = conditions: SF-539, Central Nervous System, cited from earlier work
MALME-3M = conditions: cited from earlier work
ACHN = conditions: Renal; cited from earlier work
PC-3 = conditions: PC-3, Prostate, cited from earlier work
NCI/ADR-RES = conditions: cited from earlier work
MDA-MB 231/ATCC = conditions: cited from earlier work

T1 sequence (P97584 whole entry Q160G/Q263G/Q264G/Q276G): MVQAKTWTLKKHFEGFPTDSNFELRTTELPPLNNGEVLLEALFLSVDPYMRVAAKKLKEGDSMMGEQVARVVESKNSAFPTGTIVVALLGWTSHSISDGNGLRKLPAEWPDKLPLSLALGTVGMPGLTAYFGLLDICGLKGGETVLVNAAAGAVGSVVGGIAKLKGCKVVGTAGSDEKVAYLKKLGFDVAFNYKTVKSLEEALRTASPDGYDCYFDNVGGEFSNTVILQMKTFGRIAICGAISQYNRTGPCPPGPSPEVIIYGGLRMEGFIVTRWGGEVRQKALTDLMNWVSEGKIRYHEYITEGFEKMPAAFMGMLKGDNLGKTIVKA

## CC1=C(CO)C2=C(C)C3(CC3)[C@@](C)(O)C(=O)C2=C1 [Irofulven, 6-hydroxymethylacylfulvene]
Recombinant AOR
  abundance of E (enzymatic) GSH adduct over NE (nonenzymatic) adduct: 42 fold
CCRF-CEM; Leukemia
  GI50: 2 µM
  TGI: 3.16E−05
  log(GI50): −5.7
  log(TGI): −4.5
CCRF-CEM; read-out: LC50, Leukemia
  CC50: ≥ 100 µM
K-562
  GI50: 3.16 µM
  TGI: 1.00E−04
  log(GI50): −5.5
  log(TGI): −4
K-562; read-out: LC50
  CC50: ≥ 100 µM
MOLT-4
  GI50: 0.794 µM
  TGI: 2.00E−05
  log(GI50): −6.1
  log(TGI): −4.7
MOLT-4; read-out: LC50
  CC50: ≥ 100 µM
RPMI-8226
  GI50: 31.6 µM
  TGI: 7.94E−05
  log(GI50): −4.5
  log(TGI): −4.1
RPMI-8226; read-out: LC50
  CC50: ≥ 100 µM
EKVX; Non-Small Cell Lung
  GI50: 0.2 µM
  TGI: 5.01E−07
  log(GI50): −6.7
  log(LC50): −5.4
  log(TGI): −6.3
EKVX; read-out: LC50, Non-Small Cell Lung
  CC50: 3.98 µM
HOP-62
  GI50: 0.158 µM
  TGI: 3.98E−07
  log(GI50): −6.8
  log(LC50): −5.9
  log(TGI): −6.4
HOP-62; read-out: LC50
  CC50: 1.26 µM
COLO 205
  GI50: 0.158 µM
  TGI: 5.01E−07
  log(GI50): −6.8
  log(LC50): −6.2
  log(TGI): −6.3
COLO 205; read-out: LC50
  CC50: 0.631 µM
SF-539
  GI50: 0.158 µM
  TGI: 5.01E−07
  log(GI50): −6.8
  log(LC50): −6.2
  log(TGI): −6.3
SF-539; read-out: LC50
  CC50: 0.631 µM
MALME-3M; Melanoma
  GI50: 0.2 µM
  TGI: 5.01E−07
  log(GI50): −6.7
  log(LC50): −5.6
  log(TGI): −6.3
MALME-3M; read-out: LC50, Melanoma
  CC50: 2.51 µM
ACHN
  GI50: 0.251 µM
  TGI: 1.00E−06
  log(GI50): −6.6
  log(TGI): −6
PC-3
  GI50: 0.251 µM
  TGI: 1.26E−06
  log(GI50): −6.6
  log(LC50): −4.5
  log(TGI): −5.9
PC-3; read-out: LC50
  CC50: 31.6 µM
NCI/ADR-RES; Breast
  GI50: 0.251 µM
  TGI: 7.94E−07
  log(GI50): −6.6
  log(LC50): −5.3
  log(TGI): −6.1
NCI/ADR-RES; read-out: LC50, Breast
  CC50: 5.01 µM
MDA-MB 231/ATCC; Breast
  GI50: 0.316 µM
  TGI: 1.26E−06
  log(GI50): −6.5
  log(LC50): −4.1
  log(TGI): −5.9
MDA-MB 231/ATCC; read-out: LC50, Breast
  CC50: 79.4 µM

Reference: patent publication US7718385B2, “Bioactivation of alkylating agents for cancer treatment” (priority 2003, dated 2010)
